Like-named read-outs stand apart in the source and are kept apart here.
Molecular target: T1, IL33 and ST2 binding (Homo sapiens, UniProt O95760)
T1 sequence (O95760 112-270 limits assumed): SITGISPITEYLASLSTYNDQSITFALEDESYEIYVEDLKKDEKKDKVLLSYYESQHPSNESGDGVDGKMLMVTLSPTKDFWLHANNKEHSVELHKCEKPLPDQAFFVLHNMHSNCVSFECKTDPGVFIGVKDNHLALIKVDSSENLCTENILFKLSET
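Also: plate ELISA with coated Flag-tagged human IL-33 and His-tagged human ST2, bound ST2 detected by anti-His HRP and TMB absorbance at 450 nm, 2 h compound incubation.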

Method: 100 nM of Flag tagged IL-33 human recombinant protein was prepared in 1× coating buffer (Biolegend) and placed in a 96 well microplate (Coming) using a Multichannel pipette (Gilson) and coated for at least 12 hours at 4° C.
After washing three times with PBST (1×PBS (Welgene), 1% Tween 20 (sigma)), it was reacted with 1% BSA (Bovogen) blocking buffer for 1 hour at room temperature.
Samples containing 200 nM of His-tagged ST2 human recombinant protein and 60 μM or 200 μM Example synthetic compounds were prepared, added in equal volumes, and reacted for at least 2 hours at room temperature.
After washing three times with PBST (1×PBS (Welgene), 1% Tween 20 (sigma)), anti-His HRP (BioLegend) antibody was diluted 5000:1 and reacted for at least 1 hour at room temperature.
After washing three times with PBST (1×PBS (Welgene), 1% Tween 20 (sigma)), TMB substrate solution (Thermo) was added and reacted for more than 5 minutes. The reaction was stopped by adding 1 N HCl (Samchun) and the absorbance value was obtained at 450 nm after orbital shaking for 5 s with a Microplate reader (Tecan, Spark®).
The results derived from the program linked to the microplate reader were analyzed using an Excel program. IL33-ST2 binding rate (binding %) was calculated by averaging the three values obtained in triplicate, subtracting the positive control value, and converting the negative control value to 100%. The inhibition % value of each compound was obtained by subtracting the IL33-ST2 binding % from 100%, and the error range of triplicate was also obtained and reflected in the inhibition graph of the compound.

| Structure (SMILES) | inhibition (30 µM) | inhibition (100 µM) |
| --- | --- | --- |
| O=C(NCCc1ccc(O)cc1)c1nc(-c2ccc(C(F)(F)F)cc2)oc1-c1ccccc1 [Compound 130, N-(4-Hydroxyphenethyl)-5-phenyl-2-(4-(trifluoromethyl)phenyl)oxazole-4-carboxamide] | 11% | 37% |
| O=C(c1nc(-c2ccc(C(F)(F)F)cc2)oc1-c1ccccc1[N+](=O)[O-])N1CCN(CCN2CCCC2)CC1 [Compound 170, (5-(2-Nitrophenyl)-2-(4-(trifluoromethyl)phenyl)oxazol-4-yl)(4-(2-(pyrrolidin-1-yl)ethyl)piperazin-1-yl)methanone] | 3% | 2% |
| CC(C)(C)OC(=O)N1CCN(CCNC(=O)c2nc(-c3ccc(C(F)(F)F)cc3)oc2-c2ccccc2[N+](=O)[O-])CC1 [Compound 172, tert-Butyl-4-(2-(5-(2-nitrophenyl)-2-(4-(trifluoromethyl)phenyl)oxazole-4-carboxamido)ethyl)piperazine-1-carboxylate] | 51% | 50% |
| CCOC(=O)c1nc(-c2ccc(C(F)(F)F)cc2)oc1-c1cccc(NC(C)=O)c1 [Compound 106, Ethyl 5-(3-acetamidophenyl)-2-(4-(trifluoromethyl)phenyl)oxazole-4-carboxylate] | -20% | -2% |
| O=C(NCc1cccnc1)c1nc(-c2ccc(C(F)(F)F)cc2)oc1-c1ccccc1[N+](=O)[O-] [Compound 142, 5-(2-Nitrophenyl)-N-(pyridin-3-ylmethyl)-2-(4-(trifluoromethyl)phenyl)oxazole-4-carboxamide] | 6% | 8% |
| CN(C)CCNC(=O)c1nc(-c2ccc(C(F)(F)F)cc2)oc1-c1ccccc1 [Compound 126, N-(2-(Dimethylamino)ethyl)-5-phenyl-2-(4-(trifluoromethyl)phenyl)oxazole-4-carboxamide] | -14% | 6% |
| CCOC(=O)c1nc(-c2ccc(Cl)cc2)oc1-c1ccccc1[N+](=O)[O-] [Compound 78, Ethyl 2-(4-chlorophenyl)-5-(2-nitrophenyl)oxazole-4-carboxylate] | 23% | 68% |
| CCOC(=O)c1nc(-c2ccc(F)cc2)oc1-c1ccc([N+](=O)[O-])cc1 [Compound 69, Ethyl 2-(4-fluorophenyl)-5-(4-nitrophenyl)oxazole-4-carboxylate] | 32% | 48% |
| CN(C)CCN1CCN(C(=O)c2coc(-c3ccc(C(F)(F)F)cc3)n2)CC1 [Compound 116, (4-(2-(dimethylamino)ethyl)piperazin-1-yl)(2-(4-(trifluoromethyl)phenyl)oxazol-4-yl)methanone] | 13% | 26% |
| CN1CCN(CCNC(=O)c2nc(-c3ccc(C(F)(F)F)cc3)oc2-c2ccccc2)CC1 [Compound 127, N-(2-(4-Methylpiperazin-1-yl)ethyl)-5-phenyl-2-(4-(trifluoromethyl)phenyl)oxazole-4-carboxamide] | -24% | -5% |
| O=C(NCc1ccccc1)c1nc(-c2ccc(C(F)(F)F)cc2)oc1-c1ccccc1[N+](=O)[O-] [Compound 164, N-Benzyl-5-(2-nitrophenyl)-2-(4-(trifluoromethyl)phenyl)oxazole-4-carboxamide] | 9% | 4% |
| CCOC(=O)c1nc(-c2ccc(C#N)cc2)oc1-c1ccccc1[N+](=O)[O-] [Compound 80, Ethyl 2-(4-cyanophenyl)-5-(2-nitrophenyl)oxazole-4-carboxylate] | 37% | 89% |
| CCOC(=O)c1nc(-c2ccc(C(F)(F)F)cc2)oc1-c1ccc(N)cc1 [Compound 101, Ethyl 5-(4-aminophenyl)-2-(4-(trifluoromethyl)phenyl)oxazole-4-carboxylate] | 1% | -24% |
| CN(C)CCNC(=O)c1nc(-c2ccccc2C(F)(F)F)oc1-c1ccccc1 [Compound 117, N-(2-(Dimethylamino)ethyl)-5-phenyl-2-(2-(trifluoromethyl)phenyl)oxazole-4-carboxamide] | 4% | 10% |
| CCOC(=O)c1nc(-c2cccc(OC)c2)oc1-c1ccccc1 [Compound 60, Ethyl 2-(3-methoxyphenyl)-5-phenyloxazole-4-carboxylate] | 27% | 68% |
| CCN(CC)CCN1CCN(C(=O)c2nc(-c3ccc(C(F)(F)F)cc3)oc2-c2ccccc2[N+](=O)[O-])CC1 [Compound 154, (4-(2-(Diethylamino)ethyl)piperazin-1-yl)(5-(2-nitrophenyl)-2-(4-(trifluoromethyl)phenyl)oxazol-4-yl)methanone] | 0% | -25% |
| O=C(c1nc(-c2ccc(C(F)(F)F)cc2)oc1-c1ccccc1[N+](=O)[O-])N1CCN(CCO)CC1 [Compound 169, (4-(2-Hydroxyethyl)piperazin-1-yl)(5-(2-nitrophenyl)-2-(4-(trifluoromethyl)phenyl)oxazol-4-yl)methanone] | -4% | 7% |
| CCOC(=O)c1nc(-c2ccc(F)cc2)oc1-c1ccccc1[N+](=O)[O-] [Compound 68, Ethyl 2-(4-fluorophenyl)-5-(2-nitrophenyl)oxazole-4-carboxylate] | 55% | 105% |

Next, values leading:

| inhibition (30 µM) | inhibition (100 µM) | Structure (SMILES) |
| --- | --- | --- |
| 15% | 0% | CN1CCN(CCNC(=O)c2nc(-c3ccc(F)cc3)oc2-c2ccc([N+](=O)[O-])cc2)CC1 [Compound 230, 2-(4-Fluorophenyl)-N-(2-(4-methylpiperazin-1-yl)ethyl)-5-(4-nitrophenyl)oxazole-4-carboxamide] |
| 5% | 14% | CN(C)CCNC(=O)c1nc(-c2ccc(C(C)(C)C)cc2)oc1-c1ccccc1 [Compound 265, 2-(4-(tert-Butyl)phenyl)-N-(2-(dimethylamino)ethyl)-5-phenyloxazole-4-carboxamide] |
| -15% | -6% | CN(C)CCNC(=O)c1nc(-c2ccc(C(C)(C)C)cc2)oc1-c1ccccc1[N+](=O)[O-] [Compound 268, 2-(4-(tert-Butyl)phenyl)-N-(2-(dimethylamino)ethyl)-5-(2-nitrophenyl)oxazole-4-carboxamide] |
| -11% | -19% | COc1cccc(-c2nc(C(=O)NCCN(C)C)c(-c3ccccc3[N+](=O)[O-])o2)c1 [Compound 210, N-(2-(Dimethylamino)ethyl)-2-(3-methoxyphenyl)-5-(2-nitrophenyl)oxazole-4-carboxamide] |
| 15% | 26% | CN1CCN(CCNC(=O)c2nc(-c3ccc(Cl)cc3)oc2-c2ccccc2)CC1 [Compound 245, 2-(4-Chlorophenyl)-N-(2-(4-methylpiperazin-1-yl)ethyl)-5-phenyloxazole-4-carboxamide] |
| 27% | 36% | O=C(NCCc1ccc(O)cc1)c1nc(-c2ccc(C(F)(F)F)cc2)oc1-c1ccccc1[N+](=O)[O-] [Compound 176, N-(4-Hydroxyphenethyl)-5-(2-nitrophenyl)-2-(4-(trifluoromethyl)phenyl)oxazole-4-carboxamide] |
| 40% | 107% | COCCNC(=O)c1nc(-c2ccc(C(F)(F)F)cc2)oc1-c1cccc(SC)c1 [Compound 293, N-(2-Methoxyethyl)-5-(3-(methylthio)phenyl)-2-(4-(trifluoromethyl)phenyl)oxazole-4-carboxamide] |
| -13% | -18% | CN(C)CCNC(=O)c1nc(-c2ccc(F)cc2)oc1-c1ccccc1 [Compound 224, N-(2-(Dimethylamino)ethyl)-2-(4-fluorophenyl)-5-phenyloxazole-4-carboxamide] |
| 31% | 49% | O=C(NCCN1CCNCC1)c1nc(-c2cc(F)cc(F)c2)oc1-c1ccccc1[N+](=O)[O-] [Compound 283, 2-(3,5-Difluorophenyl)-5-(2-nitrophenyl)-N-(2-(piperazin-1-yl)ethyl)oxazole-4-carboxamide] |
| 11% | 44% | COc1ccc(-c2nc(C(=O)NCCN3CCN(C)CC3)c(-c3ccc([N+](=O)[O-])cc3)o2)cc1 [Compound 219, 2-(4-methoxyphenyl)-N-(2-(4-methylpiperazin-1-yl)ethyl)-5-(4-nitrophenyl)oxazole-4-carboxamide] |
| -34% | -21% | CN1CCN(CCNC(=O)c2nc(-c3cccc(F)c3)oc2-c2ccccc2)CC1 [Compound 221, 2-(3-Fluorophenyl)N-(2-(4-methylpiperazin-1-yl)ethyl)-5-phenyloxazole-4-carboxamide] |
| -8% | -7% | CN1CCN(CCNC(=O)c2nc(-c3cc(F)cc(F)c3)oc2-c2ccccc2)CC1 [Compound 236, 2-(3,5-Difluorophenyl)-N-(2-(4-methylpiperazin-1-yl)ethyl)-5-phenyloxazole-4-carboxamide] |
| 7% | 32% | CN1CCN(CCNC(=O)c2nc(-c3cccc(OC(F)(F)F)c3)oc2-c2ccccc2[N+](=O)[O-])CC1 [Compound 202, N-(2-(4-Methylpiperazin-1-yl)ethyl)-5-(2-nitrophenyl)-2-(3-(trifluoromethoxy)phenyl)oxazole-4-carboxamide] |
| -28% | -49% | COc1ccc(-c2nc(C(=O)NCCN(C)C)c(-c3ccccc3[N+](=O)[O-])o2)cc1 [Compound 214, N-(2-(Dimethylamino)ethyl)-2-(4-methoxyphenyl)-5-(2-nitrophenyl)oxazole-4-carboxamide] |
| -11% | 4% | CN(C)CCNC(=O)c1nc(-c2ccc(OC(F)(F)F)cc2)oc1-c1ccccc1[N+](=O)[O-] [Compound 205, N-(2-(Dimethylamino)ethyl)-5-(2-nitrophenyl)-2-(4-(trifluoromethoxy)phenyl)oxazole-4-carboxamide] |
